What all share (format): biochemical
One assay deals with Mammalian Cathepsin S (Homo sapiens, UniProt P25774). Description: Ki competitive inhibition, mammalian cathepsin S. The conditions noted are these: Table 1, first line of each CAP-P2 block; read-out: Ki competitive inhibition measurements vs Mammalian Cathepsin S. The protocol:
Cathepsin S (Mammalian, murine and rat)
Assays were performed in 100 mM sodium phosphate, 100 mM NaCl, pH 6.5 (buffer) in white 384 well plates (Coming Costar). Eight inhibitors were assayed per plate.
Inhibitor dilutions were performed on a 96 well V-bottomed polypropylene plate (Corning Costar). 100 μl of buffer was placed in wells 2-5 and 7-12 of rows A, B, C and D. Sufficient of each inhibitor at 10 mM in DMSO was placed into wells A1-D1 and A6-D6 to give the desired final concentration when the volume in the well was made up to 200 μl with buffer. Column 1 was made up to 200 μl with buffer, mixed by aspirating and dispensing 100 μl in the well, and 100 μl transferred to column 2. The pipette tips were changed and the mixing and transferral repeated to column 5. This process was repeated for columns 6-10.
Substrate dilutions were performed on a 96 deep well polypropylene plate (Beckman Coulter). 280 μl of buffer was placed in wells B-H of columns 1 and 2.70 μl of 10 mM boc-Val-Leu-Lys-AMC was placed in A1 and A2. 2×250 μl of buffer was added to wells A1 and A2, mixed by aspirating and dispensing 280 μl in the well, and 280 μl transferred to row B. The pipette tips were changed and the process repeated down the plate to row H.
Column 1 of the substrate dilution plate was distributed at 10 μl per well into alternate rows beginning at row A. Column 2 was distributed to alternate rows beginning at row B. Row A of the inhibitor dilution plate was distributed at 10 μl per well to alternate rows and columns starting at A1. Row B was distributed to alternate rows and columns starting at A2. Row C was distributed to alternate rows and columns starting at B1 and row D was distributed to alternate rows and columns starting at B2. The assay was started by the addition of 30 μl per well of 20 nM cathepsin S in buffer containing 10 mM 2-mercaptoethanol.
(§1) Data were saved as text files and imported into Excel. The initial rates were determined by linear regression and then fitted to the competitive inhibition equation using SigmaPlot.

A further assay deals with Mammalian Cathepsin L (Homo sapiens, UniProt P07711). Description: Ki competitive inhibition, cathepsin L. The conditions noted are these: Table 1, second line of each CAP-P2 block; read-out: Ki competitive inhibition measurements vs Mammalian Cathepsin L. The protocol:
as §1
(§2) Assays were performed essentially as above. For cathepsin L, the buffer used was 100 mM sodium acetate, 1 mM EDTA, pH 5.5 and the substrate was D-Val-Leu-Lys-AMC with a highest concentration of 100 μM. For cathepsin K, the buffer used was 100 mM MES/Tris, 1 mM EDTA, pH 7.0 and the substrate was D-Ala-Leu-Lys-AMC with a highest concentration of 250 μM.

In the next assay the target is T1, Mammalian Cathepsin K (Homo sapiens, UniProt P43235).
T1 sequence (P43235 115-329): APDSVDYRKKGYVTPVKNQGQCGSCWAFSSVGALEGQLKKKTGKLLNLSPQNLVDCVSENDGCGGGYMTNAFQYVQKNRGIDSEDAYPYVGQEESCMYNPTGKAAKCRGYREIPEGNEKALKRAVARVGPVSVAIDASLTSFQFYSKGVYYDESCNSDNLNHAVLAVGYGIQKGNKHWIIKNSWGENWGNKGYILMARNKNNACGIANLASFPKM
Description: Ki competitive inhibition, cathepsin K. The note with it: Table 1, third line of each CAP-P2 block; read-out: Ki competitive inhibition measurements vs Mammalian Cathepsin K. The protocol:
as §2
Convenient assays for cathepsin K arere carried out using human recombinant enzyme. Standard assay conditions for the determination of kinetic constants used a fluorogenic peptide substrate, typically H-D-Ala-Leu-Lys-AMC, and were determined in either 100 mM Mes/Tris, pH 7.0 containing 1 mM EDTA and 10 mM 2-mercaptoethanol or 100 mM Na acetate, pH 5.5 containing 5 mM EDTA and 20 mM cysteine. The enzyme concentration used was 5 nM. The stock substrate solution was prepared at 10 mM in DMSO. Screens were carried out at a fixed substrate concentration of 60 μM and detailed kinetic studies with doubling dilutions of substrate from 250 μM. The total DMSO concentration in the assay was kept below 3%. All assays were conducted at ambient temperature. Product fluorescence (excitation at 390 nm, emission at 460 nm) was monitored with a Labsystems Fluoroskan Ascent fluorescent plate reader. Product progress curves were generated over 15 minutes following generation of AMC product.
Potential inhibitors are screened using the above assay with variable concentrations of test compound. Reactions were initiated by addition of enzyme to buffered solutions of substrate and inhibitor. Ki values were calculated according to equation 1 [formula] where ν0 is the velocity of the reaction, V is the maximal velocity, S is the concentration of substrate with Michaelis constant of KM, and I is the concentration of inhibitor. Determination of Falcipain 2 Proteolytic Catalytic Activity

Mammalian Cathepsin L, sequence (P07711 114-333): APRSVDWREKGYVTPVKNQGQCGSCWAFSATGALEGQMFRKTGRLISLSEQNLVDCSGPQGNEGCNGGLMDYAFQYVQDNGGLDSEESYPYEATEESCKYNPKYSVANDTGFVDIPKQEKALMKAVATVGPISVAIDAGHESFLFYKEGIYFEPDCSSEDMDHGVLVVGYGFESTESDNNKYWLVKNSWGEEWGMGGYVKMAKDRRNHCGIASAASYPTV
Mammalian Cathepsin S, sequence (P25774 115-331): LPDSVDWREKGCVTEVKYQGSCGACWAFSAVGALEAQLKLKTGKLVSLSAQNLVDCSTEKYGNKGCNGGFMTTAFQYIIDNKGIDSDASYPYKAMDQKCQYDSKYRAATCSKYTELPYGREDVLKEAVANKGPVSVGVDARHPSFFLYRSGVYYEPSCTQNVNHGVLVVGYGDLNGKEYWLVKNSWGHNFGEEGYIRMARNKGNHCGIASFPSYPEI

On to `Cc1cc(C(=O)N[C@@H](CC(C)C)C(=O)N[C@H]2C(=O)CO[C@H]2C)oc1C` [CAP6-L-Leu/drawing 70], for which the Ki at Mammalian Cathepsin S amounted to 610 nM; on Mammalian Cathepsin L it was 1100 nM; at Mammalian Cathepsin K, 0.75 µM.
On the same counts, the results for `CC(C)CC[C@H](NC(=O)c1ccoc1)C(=O)N[C@@H]1C(=O)CO[C@@H]1C` [CAP8-L-hLeu/drawing 69] are 970 nM, 38900 nM and 16 µM.
With `CCn1nc(C)cc1C(=O)NC(Cc1ccc(O)cc1)C(=O)NC1COCC1=O` [CAP10-L-Tyr/drawing 72], the Ki was 3700 nM at Mammalian Cathepsin S, 100 nM on Mammalian Cathepsin L and over 100 µM at Mammalian Cathepsin K.
With `C[C@H]1OCC(=O)[C@H]1NC(=O)[C@H](CC(C)(C)C)NC(=O)N1CCOCC1` [CAP9-L-tBu-Ala/drawing 69], the Ki turned out to be 580 nM at Mammalian Cathepsin S, 30400 nM on Mammalian Cathepsin L and 4.2 µM at Mammalian Cathepsin K.
On the same counts, the results for `CC(C)C[C@H](NC(=O)c1ccc(N(C)C)cc1)C(=O)N[C@H]1COCC1=O` [CAP7-L-Leu/drawing 72] are 3100 nM, 690 nM and 0.018 µM.
Take `C[C@H]1OCC(=O)[C@H]1NC(=O)[C@H](Cc1ccc(O)cc1)NC(=O)Cc1ccccc1` [CAP2-L-Tyr/drawing 69]: the values for the Ki at Mammalian Cathepsin S, on Mammalian Cathepsin L and on Mammalian Cathepsin K were 3200 nM, 220 nM and over 100 µM, respectively.
In the same order, the values of `CC(C)(C)CC(NC(=O)c1ccoc1)C(=O)NC1COCC1=O` [CAP8-L-tBu-Ala/drawing 72] are 210 nM, 36400 nM and 0.85 µM.
In the case of `Cc1cc(C(=O)N[C@@H](Cc2ccc(O)cc2)C(=O)N[C@@H]2COCC2=O)oc1C` [CAP6-L-Tyr/drawing 73], the Ki at Mammalian Cathepsin S is 2300 nM; at Mammalian Cathepsin L, 140 nM; at Mammalian Cathepsin K, over 100 µM.
Turning to `CCCC[C@H](NC(=O)c1ccoc1)C(=O)N[C@H]1C(=O)CO[C@H]1C` [CAP8-L-Nle/drawing 70], the Ki was 1000 nM at Mammalian Cathepsin S, over 100000 nM at Mammalian Cathepsin L and over 100 µM at Mammalian Cathepsin K.
In the same order, the values of `CC(C)C[C@H](NC(=O)c1ccc(N(C)C)cc1)C(=O)N[C@@H]1COCC1=O` [CAP7-L-Leu/drawing 73] are 3900 nM, 1100 nM and 0.023 µM.
With `CC(C)C[C@H](NC(=O)c1cccs1)C(=O)N[C@@H]1C(=O)CO[C@@H]1C` [CAP5-L-Leu/drawing 69], the Ki on Mammalian Cathepsin S is 480 nM; on Mammalian Cathepsin L it was 1480 nM; at Mammalian Cathepsin K, 0.29 µM.
Consider `CC(C)CC[C@H](NC(=O)c1ccc(O)cc1)C(=O)N[C@H]1C(=O)CO[C@H]1C` [CAP1-L-hLeu/drawing 70], for which the inhibitory constant (Ki) at Mammalian Cathepsin S was found to be 300 nM; at Mammalian Cathepsin L, 29800 nM; at Mammalian Cathepsin K, 24.1 µM.
Regarding `O=C(NC(Cc1ccc(O)cc1)C(=O)NC1COCC1=O)c1ccc(O)cc1` [CAP1-L-Tyr/drawing 72], the Ki on Mammalian Cathepsin S was 860 nM; on Mammalian Cathepsin L, 330 nM; at Mammalian Cathepsin K, 27.1 µM.
In the same order, the values of `C[C@@H]1OCC(=O)[C@@H]1NC(=O)[C@H](Cc1ccc(O)cc1)NC(=O)c1ccc(O)cc1` [CAP1-L-Tyr/drawing 70] are 1000 nM, 1800 nM and over 100 µM.
On to `Cc1cc(C(=O)N[C@@H](Cc2ccc(O)cc2)C(=O)N[C@H]2C(=O)CO[C@H]2C)oc1C` [CAP6-L-Tyr/drawing 70], for which the Ki is 240 nM on Mammalian Cathepsin S, 670 nM on Mammalian Cathepsin L and over 100 µM on Mammalian Cathepsin K.
In the same order, the values of `CC(C)C[C@H](NC(=O)N1CCOCC1)C(=O)N[C@H]1C(=O)CO[C@H]1C` [CAP9-L-Leu/drawing 70] are 800 nM, 7900 nM and 4.8 µM.
On the same counts, the results for `C[C@H]1OCC(=O)[C@H]1NC(=O)[C@H](CC(C)(C)C)NC(=O)c1ccc(O)cc1` [CAP1-L-tBu-Ala/drawing 69] are 250 nM, 3900 nM and 0.39 µM.
Consider `C[C@@H]1OCC(=O)[C@@H]1NC(=O)[C@H](Cc1ccc(O)cc1)NC(=O)c1ccccc1` [CAP3-L-Tyr/drawing 70], for which the Ki on Mammalian Cathepsin S was 170 nM; at Mammalian Cathepsin L, 1400 nM; at Mammalian Cathepsin K it was over 100 µM.
Take `CC(C)C[C@H](NC(=O)c1ccc(O)cc1)C(=O)N[C@H]1C(=O)CO[C@H]1C` [CAP1-L-Leu/drawing 70]: the Ki at Mammalian Cathepsin S came to 230 nM; on Mammalian Cathepsin L, 2700 nM; on Mammalian Cathepsin K, 0.41 µM.
On the same counts, the results for `Cc1cc(C(=O)N[C@@H](Cc2ccc(O)cc2)C(=O)N[C@@H]2C(=O)CO[C@@H]2C)oc1C` [CAP6-L-Tyr/drawing 69] are 2000 nM, 55 nM and over 100 µM.
On the same counts, the results for `CC(C)CC[C@H](NC(=O)c1ccoc1)C(=O)N[C@@H]1COCC1=O` [CAP8-L-hLeu/drawing 73] are 440 nM, 61200 nM and 8.7 µM.
Take `CCn1nc(C)cc1C(=O)N[C@@H](Cc1ccc(O)cc1)C(=O)N[C@H]1C(=O)CO[C@H]1C` [CAP10-L-Tyr/drawing 70]: the Ki at Mammalian Cathepsin S was 340 nM; at Mammalian Cathepsin L, 460 nM; at Mammalian Cathepsin K, over 100 µM.
Consider `C[C@H]1OCC(=O)[C@H]1NC(=O)[C@H](Cc1ccc(O)cc1)NC(=O)c1cccs1` [CAP5-L-Tyr/drawing 69], for which the Ki on Mammalian Cathepsin S was 1600 nM; at Mammalian Cathepsin L, 500 nM; at Mammalian Cathepsin K, over 100 µM.
On the same counts, the results for `C[C@H]1OCC(=O)[C@H]1NC(=O)[C@H](CC(C)(C)C)NC(=O)c1ccc(N(C)C)cc1` [CAP7-L-tBu-Ala/drawing 69] are 2700 nM, 13100 nM and 0.04 µM.
Take `CCCC[C@H](NC(=O)c1ccc(O)cc1)C(=O)N[C@@H]1C(=O)CO[C@H]1C` [CAP1-L-Nle/drawing 71]: the Ki on Mammalian Cathepsin S is 400 nM; on Mammalian Cathepsin L, 19300 nM; at Mammalian Cathepsin K, 8.9 µM.
Regarding `CCCC[C@H](NC(=O)c1ccoc1)C(=O)N[C@@H]1C(=O)CO[C@@H]1C` [CAP8-L-Nle/drawing 69], the Ki on Mammalian Cathepsin S turned out to be 1500 nM; at Mammalian Cathepsin L it was 54400 nM; at Mammalian Cathepsin K, 13.2 µM.
As for `CCCC[C@H](NC(=O)c1ccc(O)cc1)C(=O)N[C@H]1COCC1=O` [CAP1-L-Nle/drawing 72], the Ki on Mammalian Cathepsin S was 560 nM; at Mammalian Cathepsin L, 3300 nM; on Mammalian Cathepsin K, 1.4 µM.
On the same counts, the results for `Cc1cc(C(=O)N[C@@H](CC(C)C)C(=O)N[C@@H]2COCC2=O)oc1C` [CAP6-L-Leu/drawing 73] are 480 nM, 190 nM and 0.33 µM.
In the same order, the values of `CCCC[C@H](NC(=O)c1ccccc1)C(=O)N[C@H]1COCC1=O` [CAP3-L-Nle/drawing 72] are 760 nM, 2800 nM and 5.8 µM.
`CCCC[C@H](NC(=O)c1ccc(O)cc1)C(=O)N[C@@H]1COCC1=O` [CAP1-L-Nle/drawing 73]: the Ki on Mammalian Cathepsin S was 490 nM; on Mammalian Cathepsin L it was 4400 nM; on Mammalian Cathepsin K, 1.15 µM.

The term Ki denotes a dissociation constant, usually derived from enzyme kinetics or from competition with a known ligand.
